Reference: the kinase profiling compilation of Christmann-Franck et al. (2016)

What was measured:
Experiment in all cases: radiometric filter-binding kinase assay
CHEK1 (human) = CHEK1 (human) (UniProt O14757)
CSK (human) = CSK (human) (UniProt P41240)
CSNK2A1 (human) = CSNK2A1 (human) (UniProt P68400)
DYRK2 (human) = DYRK2 (human) (UniProt Q92630)
EEF2K (human) = EEF2K (human) (UniProt O00418)
HIPK2 (human) = HIPK2 (human) (UniProt Q9H2X6)
IKBKB (human) = IKBKB (human) (UniProt O14920)
INSRR (human) = INSRR (human) (UniProt P14616)
INSRR (human), sequence (P14616 whole entry, looked up): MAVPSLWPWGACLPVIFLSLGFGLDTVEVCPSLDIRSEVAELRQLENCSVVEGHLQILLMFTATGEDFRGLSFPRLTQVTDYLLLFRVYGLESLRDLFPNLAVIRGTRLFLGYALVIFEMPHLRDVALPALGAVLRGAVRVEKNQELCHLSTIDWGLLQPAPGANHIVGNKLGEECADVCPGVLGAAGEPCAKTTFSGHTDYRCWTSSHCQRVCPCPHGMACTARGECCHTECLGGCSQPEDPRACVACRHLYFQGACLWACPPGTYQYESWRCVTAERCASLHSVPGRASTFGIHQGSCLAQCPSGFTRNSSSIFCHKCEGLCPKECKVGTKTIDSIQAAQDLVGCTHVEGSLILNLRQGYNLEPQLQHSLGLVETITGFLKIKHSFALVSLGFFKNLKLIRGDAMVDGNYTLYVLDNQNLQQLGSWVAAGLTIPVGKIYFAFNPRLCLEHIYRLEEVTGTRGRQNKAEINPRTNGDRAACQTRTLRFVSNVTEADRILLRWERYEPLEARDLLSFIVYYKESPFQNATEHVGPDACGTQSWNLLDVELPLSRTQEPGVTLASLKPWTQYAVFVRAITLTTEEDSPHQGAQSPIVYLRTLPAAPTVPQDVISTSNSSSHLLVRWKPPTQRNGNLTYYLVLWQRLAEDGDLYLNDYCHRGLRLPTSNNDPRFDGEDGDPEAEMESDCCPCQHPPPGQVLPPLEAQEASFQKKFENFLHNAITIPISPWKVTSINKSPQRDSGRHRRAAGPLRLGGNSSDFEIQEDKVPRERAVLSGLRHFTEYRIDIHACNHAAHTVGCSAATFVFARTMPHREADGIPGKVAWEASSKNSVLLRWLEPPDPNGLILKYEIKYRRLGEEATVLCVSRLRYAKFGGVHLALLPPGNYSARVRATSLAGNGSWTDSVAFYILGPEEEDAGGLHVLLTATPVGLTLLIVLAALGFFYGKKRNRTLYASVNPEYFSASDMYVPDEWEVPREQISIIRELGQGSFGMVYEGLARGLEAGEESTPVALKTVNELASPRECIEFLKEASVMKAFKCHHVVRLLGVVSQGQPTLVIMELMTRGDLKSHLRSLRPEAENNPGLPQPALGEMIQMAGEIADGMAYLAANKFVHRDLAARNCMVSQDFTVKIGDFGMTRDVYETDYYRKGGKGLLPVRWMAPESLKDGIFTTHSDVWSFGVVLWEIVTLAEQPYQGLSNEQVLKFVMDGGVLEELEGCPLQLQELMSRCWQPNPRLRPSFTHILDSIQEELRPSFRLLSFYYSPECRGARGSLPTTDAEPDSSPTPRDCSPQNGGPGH

MAP2K1 (human) = MAP2K1 (human) (UniProt Q02750)
MAP2K1 (human), sequence (Q02750 whole entry, looked up): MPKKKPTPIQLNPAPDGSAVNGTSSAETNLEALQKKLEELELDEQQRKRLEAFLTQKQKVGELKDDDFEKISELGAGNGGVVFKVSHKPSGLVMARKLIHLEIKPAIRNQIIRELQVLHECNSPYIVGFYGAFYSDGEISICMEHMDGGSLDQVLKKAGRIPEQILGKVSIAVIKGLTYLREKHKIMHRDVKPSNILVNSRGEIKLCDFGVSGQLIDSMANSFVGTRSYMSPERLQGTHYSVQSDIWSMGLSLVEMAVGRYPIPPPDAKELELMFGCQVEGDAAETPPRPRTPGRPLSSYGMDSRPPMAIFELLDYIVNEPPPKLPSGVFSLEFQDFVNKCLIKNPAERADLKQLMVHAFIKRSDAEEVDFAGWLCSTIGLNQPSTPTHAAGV

MAPK1 (human) = MAPK1 (human) (UniProt P28482)
MAPK1 (human), sequence (P28482 whole entry, looked up): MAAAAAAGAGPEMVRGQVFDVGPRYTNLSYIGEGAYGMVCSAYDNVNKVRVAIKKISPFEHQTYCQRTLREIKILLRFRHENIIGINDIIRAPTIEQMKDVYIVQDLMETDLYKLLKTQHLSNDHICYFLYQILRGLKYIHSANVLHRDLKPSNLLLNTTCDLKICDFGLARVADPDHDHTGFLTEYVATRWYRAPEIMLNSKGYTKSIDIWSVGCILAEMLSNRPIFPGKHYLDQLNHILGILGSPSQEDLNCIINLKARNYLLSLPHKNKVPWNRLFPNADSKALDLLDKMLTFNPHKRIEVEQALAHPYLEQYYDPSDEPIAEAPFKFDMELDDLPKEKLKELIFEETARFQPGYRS

MAPK15 (human) = MAPK15 (human) (UniProt Q8TD08)
MAPK3 (human) = MAPK3 (human) (UniProt P27361)
MAPK9 (human) = MAPK9 (human) (UniProt P45984)
MAPK9 (human), sequence (P45984 whole entry, looked up): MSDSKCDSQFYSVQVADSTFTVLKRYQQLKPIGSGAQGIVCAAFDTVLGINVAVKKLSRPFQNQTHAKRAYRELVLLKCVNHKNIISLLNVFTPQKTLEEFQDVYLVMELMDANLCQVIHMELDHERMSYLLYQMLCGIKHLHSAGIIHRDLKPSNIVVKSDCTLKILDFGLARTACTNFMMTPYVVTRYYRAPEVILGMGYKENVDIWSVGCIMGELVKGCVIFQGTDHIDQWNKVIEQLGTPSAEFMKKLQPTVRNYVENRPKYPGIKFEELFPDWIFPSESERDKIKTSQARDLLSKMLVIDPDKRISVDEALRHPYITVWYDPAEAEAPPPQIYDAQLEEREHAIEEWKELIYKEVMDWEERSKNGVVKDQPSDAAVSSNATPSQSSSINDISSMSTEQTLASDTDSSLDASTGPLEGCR

MAPKAPK2 (human) = MAPKAPK2 (human) (UniProt P49137)
MARK3 (human) = MARK3 (human) (UniProt P27448)
MKNK1 (human) = MKNK1 (human) (UniProt Q9BUB5)
MKNK2 (human) = MKNK2 (human) (UniProt Q9HBH9)
MKNK2 (human), sequence (Q9HBH9 whole entry, looked up): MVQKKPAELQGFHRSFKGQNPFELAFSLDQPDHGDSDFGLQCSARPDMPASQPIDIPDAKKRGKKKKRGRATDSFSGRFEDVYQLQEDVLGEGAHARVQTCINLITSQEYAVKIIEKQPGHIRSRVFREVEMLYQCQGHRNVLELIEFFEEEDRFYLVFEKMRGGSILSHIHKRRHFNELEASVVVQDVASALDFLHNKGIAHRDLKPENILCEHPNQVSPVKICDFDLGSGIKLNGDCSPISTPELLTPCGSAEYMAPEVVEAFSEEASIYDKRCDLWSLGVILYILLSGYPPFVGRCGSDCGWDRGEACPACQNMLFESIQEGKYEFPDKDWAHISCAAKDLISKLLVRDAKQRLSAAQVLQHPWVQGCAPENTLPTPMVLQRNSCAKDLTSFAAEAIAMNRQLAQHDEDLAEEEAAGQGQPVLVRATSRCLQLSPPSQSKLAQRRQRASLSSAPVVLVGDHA

MST4 (human) = MST4 (human) (UniProt Q9P289)
PAK4 (human) = PAK4 (human) (UniProt O96013)
PAK7 (human) = PAK7 (human) (UniProt Q9P286)
PAK7 (human), sequence (Q9P286 whole entry, looked up): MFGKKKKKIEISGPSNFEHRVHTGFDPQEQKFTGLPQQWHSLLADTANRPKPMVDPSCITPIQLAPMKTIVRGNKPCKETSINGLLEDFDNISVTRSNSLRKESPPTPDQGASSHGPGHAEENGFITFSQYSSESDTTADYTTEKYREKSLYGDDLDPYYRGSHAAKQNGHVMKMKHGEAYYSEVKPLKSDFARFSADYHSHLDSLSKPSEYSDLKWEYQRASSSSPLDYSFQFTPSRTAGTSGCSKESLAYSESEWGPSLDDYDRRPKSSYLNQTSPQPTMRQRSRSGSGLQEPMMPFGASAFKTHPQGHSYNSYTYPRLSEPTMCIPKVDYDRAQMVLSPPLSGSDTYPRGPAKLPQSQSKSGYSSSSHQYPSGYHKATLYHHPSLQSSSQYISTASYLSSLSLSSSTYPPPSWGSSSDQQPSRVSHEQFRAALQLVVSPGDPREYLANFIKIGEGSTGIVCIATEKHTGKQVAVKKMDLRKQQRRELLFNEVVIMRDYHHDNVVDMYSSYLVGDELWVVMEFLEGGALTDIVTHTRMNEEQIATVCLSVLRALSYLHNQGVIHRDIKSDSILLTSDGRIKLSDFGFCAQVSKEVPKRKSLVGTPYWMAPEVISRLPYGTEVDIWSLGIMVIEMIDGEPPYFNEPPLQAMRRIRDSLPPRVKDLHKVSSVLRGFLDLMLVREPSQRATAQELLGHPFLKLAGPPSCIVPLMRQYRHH

[1] = test system: PINK1 (Tribolium castaneum); conditions: accession and sequence are those of the human protein
PKN2 (human) = PKN2 (human) (UniProt Q16513)
ROCK2 (rat) = conditions: accession and sequence are those of the human protein
RPS6KA5 KD1 KD2 (human) = RPS6KA5 KD1 KD2 (human) (UniProt O75582)
[2] = test system: SGK1 (human), O00141 [S422D]
SRPK1 (human) = SRPK1 (human) (UniProt Q96SB4)
ABL1 (human) = ABL1 (human) (UniProt P00519); conditions: compound 1.0 µM
BRSK1 (human) = BRSK1 (human) (UniProt Q8TDC3); conditions: compound 1.0 µM
CLK2 (human) = CLK2 (human) (UniProt P49760); conditions: compound 1.0 µM
DAPK1 (human) = DAPK1 (human) (UniProt P53355); conditions: compound 1.0 µM
EPHB1 (human) = EPHB1 (human) (UniProt P54762); conditions: compound 1.0 µM
EPHB3 (human) = EPHB3 (human) (UniProt P54753); conditions: compound 1.0 µM
GCK (human) = GCK (human) (UniProt Q12851); conditions: compound 1.0 µM
MAP3K1 (human) = MAP3K1 (human) (UniProt Q13233); conditions: compound 1.0 µM
MAPK13 (human) = MAPK13 (human) (UniProt O15264); conditions: compound 1.0 µM
MINK1 (human) = MINK1 (human) (UniProt Q8N4C8); conditions: compound 1.0 µM
NUAK1 (human) = NUAK1 (human) (UniProt O60285); conditions: compound 1.0 µM
PRKCG (human) = PRKCG (human) (UniProt P05129); conditions: compound 1.0 µM
PTK6 (human) = PTK6 (human) (UniProt Q13882); conditions: compound 1.0 µM
ZAP70 (human) = ZAP70 (human) (UniProt P43403); conditions: compound 1.0 µM

DYRK2 (human), sequence (Q92630 whole entry, looked up): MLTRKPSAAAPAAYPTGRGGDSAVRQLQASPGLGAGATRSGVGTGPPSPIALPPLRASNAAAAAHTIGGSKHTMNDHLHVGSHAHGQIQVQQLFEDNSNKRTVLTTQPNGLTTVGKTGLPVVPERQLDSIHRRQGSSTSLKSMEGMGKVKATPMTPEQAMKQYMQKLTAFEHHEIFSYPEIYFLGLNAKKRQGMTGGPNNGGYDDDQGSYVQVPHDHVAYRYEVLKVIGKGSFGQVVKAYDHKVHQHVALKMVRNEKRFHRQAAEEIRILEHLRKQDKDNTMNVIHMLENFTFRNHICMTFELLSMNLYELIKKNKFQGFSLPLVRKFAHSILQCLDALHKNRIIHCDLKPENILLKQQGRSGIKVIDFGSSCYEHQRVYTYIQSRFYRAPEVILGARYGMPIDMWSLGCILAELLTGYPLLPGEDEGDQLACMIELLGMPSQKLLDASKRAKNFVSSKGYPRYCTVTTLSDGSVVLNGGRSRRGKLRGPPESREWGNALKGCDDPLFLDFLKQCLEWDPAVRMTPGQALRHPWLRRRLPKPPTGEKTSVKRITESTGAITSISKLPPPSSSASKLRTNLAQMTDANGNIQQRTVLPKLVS
IKBKB (human), sequence (O14920 whole entry, looked up): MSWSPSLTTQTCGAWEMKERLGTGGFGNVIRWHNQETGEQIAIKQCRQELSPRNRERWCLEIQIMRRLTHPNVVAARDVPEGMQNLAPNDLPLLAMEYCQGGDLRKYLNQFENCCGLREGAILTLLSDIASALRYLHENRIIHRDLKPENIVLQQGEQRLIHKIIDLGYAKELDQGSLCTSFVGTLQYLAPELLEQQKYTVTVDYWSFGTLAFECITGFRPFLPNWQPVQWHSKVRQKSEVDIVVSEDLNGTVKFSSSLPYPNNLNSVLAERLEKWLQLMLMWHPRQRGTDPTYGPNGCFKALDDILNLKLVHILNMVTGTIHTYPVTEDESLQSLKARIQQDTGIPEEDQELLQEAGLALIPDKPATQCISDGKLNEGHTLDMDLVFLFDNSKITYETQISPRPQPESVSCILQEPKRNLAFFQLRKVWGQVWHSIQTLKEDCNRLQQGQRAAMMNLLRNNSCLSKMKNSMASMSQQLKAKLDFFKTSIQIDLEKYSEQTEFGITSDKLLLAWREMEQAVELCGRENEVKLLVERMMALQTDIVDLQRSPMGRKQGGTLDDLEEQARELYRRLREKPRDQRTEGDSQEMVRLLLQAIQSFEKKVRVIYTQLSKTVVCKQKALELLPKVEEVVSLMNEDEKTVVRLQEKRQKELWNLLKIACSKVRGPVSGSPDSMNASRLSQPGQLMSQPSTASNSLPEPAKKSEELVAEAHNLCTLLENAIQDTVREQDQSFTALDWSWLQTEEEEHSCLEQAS

SMILES: Oc1ccc2c(c1)C(O)c1cc(O)ccc1-2
- residual activity (CHEK1 (human); compound 20.0 µM): 74%
- residual activity (CSK (human); compound 20.0 µM): 98%
- IC50 (CSNK2A1 (human)): > 40 µM
- residual activity (CSNK2A1 (human); compound 20.0 µM): 52%
- residual activity (DYRK2 (human); compound 20.0 µM): 69%
- residual activity (EEF2K (human); compound 20.0 µM): 104%
- residual activity (HIPK2 (human); compound 20.0 µM): 62%
- residual activity (IKBKB (human); compound 20.0 µM): 94%
- residual activity (INSRR (human); compound 20.0 µM): 47%
- residual activity (MAP2K1 (human); compound 20.0 µM): 122%
- residual activity (MAPK1 (human); compound 20.0 µM): 101%
- residual activity (MAPK15 (human); compound 20.0 µM): 25%
- residual activity (MAPK3 (human); compound 20.0 µM): 100%
- residual activity (MAPK9 (human); compound 20.0 µM): 99%
- residual activity (MAPKAPK2 (human); compound 20.0 µM): 48%
- residual activity (MARK3 (human); compound 20.0 µM): 64%
- residual activity (MKNK1 (human); compound 20.0 µM): 71%
- residual activity (MKNK2 (human); compound 20.0 µM): 65%
- residual activity (MST4 (human); compound 20.0 µM): 87%
- residual activity (PAK4 (human); compound 20.0 µM): 46%
- residual activity (PAK7 (human); compound 20.0 µM): 64%
- residual activity ([1]; compound 20.0 µM): 68%
- residual activity (PKN2 (human); compound 20.0 µM): 86%
- residual activity (ROCK2 (rat); compound 20.0 µM): 78%
- residual activity (RPS6KA5 KD1 KD2 (human); compound 20.0 µM): 85%
- residual activity ([2]; compound 20.0 µM): 70%
- residual activity (SRPK1 (human); compound 20.0 µM): 80%

SMILES: COc1ccc2c(c1)[nH]c1c(C)nccc12
- residual activity (ABL1 (human)): 111%
- residual activity (BRSK1 (human)): 83%
- residual activity (CHEK1 (human); compound 1.0 µM): 94%
- residual activity (CLK2 (human)): 10%
- residual activity (CSK (human); compound 1.0 µM): 103%
- IC50 (CSNK2A1 (human)): > 40 µM
- residual activity (CSNK2A1 (human); compound 1.0 µM): 83%
- residual activity (DAPK1 (human)): 95%
- residual activity (DYRK2 (human); compound 1.0 µM): 35%
- residual activity (EEF2K (human); compound 1.0 µM): 73%
- residual activity (EPHB1 (human)): 103%
- residual activity (EPHB3 (human)): 86%
- residual activity (GCK (human)): 68%
- residual activity (HIPK2 (human); compound 1.0 µM): 68%
- residual activity (IKBKB (human); compound 1.0 µM): 81%
- residual activity (INSRR (human); compound 1.0 µM): 23%
- residual activity (MAP2K1 (human); compound 1.0 µM): 102%
- residual activity (MAP3K1 (human)): 89%
- residual activity (MAPK1 (human); compound 1.0 µM): 100%
- residual activity (MAPK13 (human)): 88%
- residual activity (MAPK15 (human); compound 1.0 µM): 75%
- residual activity (MAPK3 (human); compound 1.0 µM): 102%
- residual activity (MAPK9 (human); compound 1.0 µM): 84%
- residual activity (MAPKAPK2 (human); compound 1.0 µM): 87%
- residual activity (MARK3 (human); compound 1.0 µM): 107%
- residual activity (MINK1 (human)): 101%
- residual activity (MKNK1 (human); compound 1.0 µM): 81%
- residual activity (MKNK2 (human); compound 1.0 µM): 84%
- residual activity (MST4 (human); compound 1.0 µM): 135%
- residual activity (NUAK1 (human)): 96%
- residual activity (PAK4 (human); compound 1.0 µM): 67%
- residual activity (PAK7 (human); compound 1.0 µM): 90%
- residual activity ([1]; compound 1.0 µM): 98%
- residual activity (PKN2 (human); compound 1.0 µM): 61%
- residual activity (PRKCG (human)): 100%
- residual activity (PTK6 (human)): 112%
- residual activity (ROCK2 (rat); compound 1.0 µM): 102%
- residual activity ([2]; compound 1.0 µM): 78%
- residual activity (SRPK1 (human); compound 1.0 µM): 78%
- residual activity (ZAP70 (human)): 100%

SMILES: Oc1ccc2c(c1)oc1c3ccccc3c(O)cc21
- residual activity (ABL1 (human)): 83%
- residual activity (BRSK1 (human)): 73%
- residual activity (CHEK1 (human); compound 1.0 µM): 92%
- residual activity (CLK2 (human)): 8%
- residual activity (CSK (human); compound 1.0 µM): 98%
- IC50 (CSNK2A1 (human)): 4 µM
- residual activity (CSNK2A1 (human); compound 1.0 µM): 87%
- residual activity (DAPK1 (human)): 31%
- residual activity (DYRK2 (human); compound 1.0 µM): 5%
- residual activity (EEF2K (human); compound 1.0 µM): 85%
- residual activity (EPHB1 (human)): 107%
- residual activity (EPHB3 (human)): 97%
- residual activity (GCK (human)): 65%
- residual activity (HIPK2 (human); compound 1.0 µM): 17%
- residual activity (IKBKB (human); compound 1.0 µM): 85%
- residual activity (INSRR (human); compound 1.0 µM): 24%
- residual activity (MAP2K1 (human); compound 1.0 µM): 94%
- residual activity (MAP3K1 (human)): 67%
- residual activity (MAPK1 (human); compound 1.0 µM): 106%
- residual activity (MAPK13 (human)): 95%
- residual activity (MAPK15 (human); compound 1.0 µM): 37%
- residual activity (MAPK3 (human); compound 1.0 µM): 86%
- residual activity (MAPK9 (human); compound 1.0 µM): 102%
- residual activity (MAPKAPK2 (human); compound 1.0 µM): 80%
- residual activity (MARK3 (human); compound 1.0 µM): 80%
- residual activity (MINK1 (human)): 87%
- residual activity (MKNK1 (human); compound 1.0 µM): 66%
- residual activity (MKNK2 (human); compound 1.0 µM): 55%
- residual activity (MST4 (human); compound 1.0 µM): 86%
- residual activity (NUAK1 (human)): 88%
- residual activity (PAK4 (human); compound 1.0 µM): 75%
- residual activity (PAK7 (human); compound 1.0 µM): 94%
- residual activity ([1]; compound 1.0 µM): 80%
- residual activity (PKN2 (human); compound 1.0 µM): 35%
- residual activity (PRKCG (human)): 97%
- residual activity (PTK6 (human)): 103%
- residual activity (ROCK2 (rat); compound 1.0 µM): 92%
- residual activity (RPS6KA5 KD1 KD2 (human); compound 1.0 µM): 105%
- residual activity ([2]; compound 1.0 µM): 80%
- residual activity (SRPK1 (human); compound 1.0 µM): 83%
- residual activity (ZAP70 (human)): 90%
